Paper PMC3953730 (FEBS Open Bio, 2014)

Target: β-secretase 1 (BACE1) (Homo sapiens, UniProt P56817)
Assay: in vitro fluorogenic peptide cleavage assay, dose response
Assay type: biochemical

Chain of β-secretase 1 (BACE1) (P56817 46-457): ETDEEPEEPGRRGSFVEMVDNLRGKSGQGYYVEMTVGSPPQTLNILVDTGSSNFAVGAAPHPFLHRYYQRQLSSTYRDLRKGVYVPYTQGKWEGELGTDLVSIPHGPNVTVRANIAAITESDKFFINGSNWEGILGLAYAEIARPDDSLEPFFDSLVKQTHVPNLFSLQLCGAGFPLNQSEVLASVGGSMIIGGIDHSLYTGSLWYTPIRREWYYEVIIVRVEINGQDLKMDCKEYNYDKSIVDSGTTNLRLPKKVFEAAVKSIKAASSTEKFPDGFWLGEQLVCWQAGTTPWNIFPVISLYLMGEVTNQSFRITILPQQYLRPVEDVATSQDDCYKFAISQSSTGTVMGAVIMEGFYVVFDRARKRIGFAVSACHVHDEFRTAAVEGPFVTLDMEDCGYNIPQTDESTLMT

O=P(O)(O)O[C@H]1[C@H](OP(=O)(O)O)[C@@H](OP(=O)(O)O)[C@H](OP(=O)(O)O)[C@@H](OP(=O)(O)O)[C@H]1OP(=O)(O)O [IP6, myo-inositol hexakisphosphate] gave an IC50 of ~0.25 µM.
